Results from US9969744B2, “Compounds for use in cognition improvement” (FUNDACIÓN PARA LA INVESTIGACIÓN MÉDICA APLICADA, priority 2014, dated 2018).
Marks after values point to notes of the source that are not given here.

Key:
[1] = target: T1, PDE5A1 (Homo sapiens, UniProt O76074); assay: PDE enzyme activity assay (HTRF cGMP), PDE5A; assay type: biochemical; details: recombinant enzyme; read-out: PDE5A1 inhibition (IC50)
T1 construct: they are full-length with N-terminal GST tag; GST (N); purchased BPS Biosciences 60050; host or cells: baculovirus infected Sf9 cells

[2] = tested on: phosphorylated tau (p-Tau); assay: AD-related markers in Tg2576 neurons: pTau; assay type: cell-based, mouse; details: Tg2576 primary neurons, compound concentration 50 nM
Protocol: The effects of the compounds on amyloid pathology were analysed in primary cultures after 21 days in-vitro (DIV) of neurons derived from the hippocampus and cortex of Tg2576 mouse embryos. Tg2576 mice express the human 695-aa isoform of APP (hAPP) containing the Swedish double mutation, which favours A3 production. Neurons were treated for two days and collected at day 3, 24 h after the last treatment. First it was analysed the effect of the compounds on hAPP processing by the amyloidogenic pathway by measuring the carboxyl terminal fragment AβPP (C99), which is the precursor of Aβ42. […]
It was next analyzed the effect of the compounds on levels of phosphorylated tau (p-Tau) in the same samples, another marker of AD, using a phospho-specific antibody (AT8) that recognizes hyperphosphorylated epitopes on Ser202/Thr205. […]
To analyze APP-derived fragments and p-Tau levels in primary neuronal cultures, cells were collected in a buffer containing SDS (2%), Tris-HCl (10 mM, pH 7.4), protease inhibitors (1 mM phenylmethylsulfonyl fluoride (PMSF) and Complete Protease Inhibitor Cocktail: Roche Diagnostics) and phosphatase inhibitors (0.1 mM Na3VO4 and 1 mM NaF). […] Aliquots of the supernatant were frozen at […] and their protein concentrations determined by the Bradford method using the Bio-Rad protein assay (Bio-Rad, Hercules, Calif., USA). […]

[3] = tested on: carboxyl terminal fragment AβPP (C99); assay: AD-related markers in Tg2576 neurons: APP processing (C99); assay type: cell-based, mouse; details: Tg2576 primary neurons, compound concentration 50 nM
Protocol: The effects of the compounds on amyloid pathology were analysed in primary cultures after 21 days in-vitro (DIV) of neurons derived from the hippocampus and cortex of Tg2576 mouse embryos. Tg2576 mice express the human 695-aa isoform of APP (hAPP) containing the Swedish double mutation, which favours A3 production. Neurons were treated for two days and collected at day 3, 24 h after the last treatment. First it was analysed the effect of the compounds on hAPP processing by the amyloidogenic pathway by measuring the carboxyl terminal fragment AβPP (C99), which is the precursor of Aβ42. In this case the reported EC50, Table 2 (below), means a 50% decrease in C99 levels over basal (vehicle, no treatment).
To analyze APP-derived fragments and p-Tau levels in primary neuronal cultures, cells were collected in a buffer containing SDS (2%), Tris-HCl (10 mM, pH 7.4), protease inhibitors (1 mM phenylmethylsulfonyl fluoride (PMSF) and Complete Protease Inhibitor Cocktail: Roche Diagnostics) and phosphatase inhibitors (0.1 mM Na3VO4 and 1 mM NaF). The homogenates were sonicated for 2 min and centrifuged at 100,000×g for 1 h. Aliquots of the supernatant were frozen at […] and their protein concentrations determined by the Bradford method using the Bio-Rad protein assay (Bio-Rad, Hercules, Calif., USA). […]

[4] = Pharmacokinetics: plasma and brain concentration in wild type mice; assay type: in vivo; details: 1 hour after 40 mg/Kg i.p.
Protocol: Plasma and brain samples for measuring compounds concentrations were collected at predetermined times from four wild type mice per point. Three time points were measured: 0.25, 0.5 and 1.0 hour. Compounds concentration was measured using a Xevo-TQ MS triple quadropole mass spectrometer with an electrospray ionization (ESI) source and an Acquity UPLC (Waters, Manchester, UK).
Compounds solutions were prepared by dissolving the samples in DMSO and this solution was made up to a final volume by addition of a mixture of Tween 20 and 0.9% NaCl (1/1/8, v:v:v, DMSO/Tween 20/saline). Compounds were injected as a single intraperitoneal injection. Animals were killed by decapitation.
Plasma. Blood was collected into tubes containing EDTA and plasma was collected via centrifugation (4° C., 13200 rpm, 5 min) and stored at −80° C. until analysis.
Brain. Brains were collected immediately after mice death. The brains were excised, weighed and frozen at −80° C. until further process for analysis.
Chromatographic separation was performed by gradient elution at 0.4 mL/min using an Acquity UPLC BEH C18 column (100×2.1 mm, 1.7 μm particle size; Waters). The mobile phase consisted of A: water with 0.1% formic acid, B: methanol with 0.1% formic acid. After 1.5 min at the initial condition of 95% A, solvent B was increased from 5% to 100% over 2 min, maintained at 100% for 1.5 min, then a linear gradient to initial conditions was applied for 0.1 min and maintained for 3.4 minutes to re-equilibrate the column, giving a cycle time of 8.5 min. The autosampler temperature was set at 10° C. and column temperature at 45° C.
Compounds were monitored using a triple quadrupole mass spectrometer equipped with an electrospray ionization interface. For detection and quantification, a capillary voltage of 3.5 kV and a cone voltage of 38 V were used. Source and desolvation temperatures were 150° C. and 650° C., respectively. Ultra-high purity nitrogen was used for cone gas (75 L h^−1) and desolvation gas (1000 L h^−1). The electrospray ionization operated in the positive mode, and the collision gas used was ultra-pure argon at a flow rate of 0.15 mL min^−1.
Quantification was achieved by external calibration using matrix-matched standards. Concentrations were calculated using a weighted least-squares linear regression (W=1/x). Calibration standards were prepared by adding the appropriate volume of diluted solutions of the compound (made in a mixture of methanol and water, 50:50, v:v) to aliquots of 50 uL of blank plasma or to 75 mg of homogenized blank brain. 2% formic acid in acetonitrile was added to precipitate the proteins. The mixture was then agitated for 10 min and centrifuged at 13200 rpm for 5 min at 4° C. […]

CCCc1nn(C)c2c(=O)[nH]c(-c3cc(Cc4ccc(C(=O)Nc5ccccc5N)cc4)ccc3OCC)nc12 [Example 1-11, N-(2-aminophenyl)-4-[[4-ethoxy-3-(1-methyl-7-oxo-3-propyl-6H-pyrazolo[4,3-d]pyrimidin-5-yl)phenyl]methyl]benzamide]
IC50 [1]: 10 to 1000 nM
decrease in pTau levels over basal [2]: ++ (basal x0.2≤(++)<basal x0.4 (reduction between 20% and 40%))
decrease in C99 levels over basal [3]: ++ (basal x0.2≤(++)<basal x0.4 (reduction between 20% and 40%))
Crosses BBB? [4]: Yes
C (brain) ([4]; standard deviation in brackets): 1903.4 (565.8)^a nmol/Kg
C (plasma) ([4]; standard deviation in brackets): 12132.5 (1762.9)^a nM
Kp at 1 h ([4]; mouse, brain/plasma, intraperitoneal, read-out: Brain/Plasma ratio): 0.157
